The text below walks through data of patent US8524765B2, “Compounds that modulate intracellular calcium” (Calcimedica, Inc., priority 2007, dated 2013).

Entries after “also recorded” stand apart in the source; their conditions may differ. Like-named read-outs stand apart in the source and are kept apart here.

In assay [1] the test system is store-operated calcium entry in RBL-2H3 cells. In words: Fluorescence (FLUO-4/FLIPR384) store-operated calcium entry screening assay. In kind it is cell-based, rat. As to conditions: for IC50: Up slope parameter, RBL-2H3 cells; for inhibition at 10 µM: RBL-2H3; for inhibition at 10 µM / % Inhibition at 10 μM: cell line not stated. On the procedure:
Fluorescence-based assays were used for screening the compounds described herein, such as compounds of Formula (I) and Formula (II), which modulate intracellular calcium.
RBL-2H3 cells plated in 384-well plates were loaded for 45 min with FLUO-4-AM (2 μM final concentration) in HBSS. Cells were washed and placed in a nominally Ca^2+- and Mg^2+-free Hanks solution. One minute later, a test agent or vehicle was added. After a 15 minute incubation period, 1 μM thapsigargin (Tg) was added to inhibit the ER Ca^2+ pump and discharge intracellular Ca^2+ stores. Fifteen minutes after addition of Tg, store-operated calcium entry was initiated by adding external Ca^2+ to a final concentration of 1.8 mM and the cells monitored for a further 10-15 minutes. Calcium levels were monitored throughout the assay using a FLIPR^384 (Molecular Devices fluorimetric imaging plate reader for high throughput screening).
A similar screening assay procedure was used with HEK293 and RBL-2H3 cells.
The kinetic data from the FLIPR^384 were analyzed and then stored in a relational database (ActivityBase; IDBS). Ten quantitative parameters were calculated that define various aspects of the store-operated calcium entry response. These parameters are as follows:
Up slope: linear regression of the increase in RFU from 2 to 30 sec after addition of Ca^2+.
Combinations of these parameters were used to characterize the compounds of Formula (I). Compounds were retested under identical conditions to confirm their activity. Compounds with confirmed activity were then analyzed for concentration-dependent effects, and subsequently, those compounds displaying concentration-dependent effects were categorized as compounds that modulate intracellular calcium.

In assay [2] the target is T1, hOrail/hSTIM1 (Homo sapiens, UniProt Q96D31).
T1 construct: expressed in transfected cells
T1 sequence (Q96D31 whole entry): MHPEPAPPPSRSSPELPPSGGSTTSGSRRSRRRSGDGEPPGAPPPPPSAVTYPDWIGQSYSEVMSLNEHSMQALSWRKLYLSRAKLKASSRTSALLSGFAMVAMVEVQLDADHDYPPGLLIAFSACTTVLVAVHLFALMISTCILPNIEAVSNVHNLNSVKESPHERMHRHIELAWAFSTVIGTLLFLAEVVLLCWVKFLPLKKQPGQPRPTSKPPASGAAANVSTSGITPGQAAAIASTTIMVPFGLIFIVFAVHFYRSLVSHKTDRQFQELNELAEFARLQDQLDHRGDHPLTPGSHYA
T1 sequence (Q13586 23-685 partner): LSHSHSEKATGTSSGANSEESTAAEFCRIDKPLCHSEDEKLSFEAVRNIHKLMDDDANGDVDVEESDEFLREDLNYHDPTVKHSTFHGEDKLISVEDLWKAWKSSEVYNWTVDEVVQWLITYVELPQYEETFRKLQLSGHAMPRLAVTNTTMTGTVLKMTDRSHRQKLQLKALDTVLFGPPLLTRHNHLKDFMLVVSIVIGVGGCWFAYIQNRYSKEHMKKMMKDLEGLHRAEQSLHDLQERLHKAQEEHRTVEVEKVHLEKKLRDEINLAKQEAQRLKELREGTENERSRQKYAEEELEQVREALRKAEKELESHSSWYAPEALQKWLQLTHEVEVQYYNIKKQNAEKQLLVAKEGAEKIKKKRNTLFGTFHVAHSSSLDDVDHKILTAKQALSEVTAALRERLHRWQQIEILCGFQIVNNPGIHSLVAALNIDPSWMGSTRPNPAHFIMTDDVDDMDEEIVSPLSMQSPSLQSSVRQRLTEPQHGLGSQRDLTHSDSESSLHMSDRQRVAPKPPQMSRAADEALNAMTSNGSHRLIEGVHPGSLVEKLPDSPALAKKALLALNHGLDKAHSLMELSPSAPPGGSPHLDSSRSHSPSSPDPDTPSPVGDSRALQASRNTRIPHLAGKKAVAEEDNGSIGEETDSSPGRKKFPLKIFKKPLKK
In words: Monster ICRAC in cells stably overexpressing hOrail/hSTIM1. Type of assay: cell-based. As to conditions: FIG. 15.

Assay [3] deals with T1, hOrail/hSTIM1. In words: Recombinant hOrail/hSTIM1-dependent Ca2+ entry in stable cells. Type of assay: cell-based. As to conditions: FIG. 14.
Another assay has as its system HEK-Zeo control cells. As to conditions: read-out: IC50 for inhibition of calcium entry, HEK-Zeo control cells; thapsigargin-mediated store depletion, readdition of external calcium. On the procedure:
(§1) To test whether the Ca^2+ entry pathway activated by STIM1 overexpression is pharmacologically similar to endogenous SOCE, HEK[STIM1] cells were pre-incubated with increasing doses of 2-APB and STIM1-dependent Ca^2+ entry was measured.

Another assay relates to HEK[STIM1] cells. In words: STIM1-dependent Ca2+ entry in STIM1-overexpressing cells. Type of assay: cell-based, human. On the procedure:
as §1

On to `Cc1cccc(C(=O)Nc2scc(-c3ccc(Cl)cc3)c2C(=O)O)c1` [Compound 50, 2-(3-methylbenzamido)-4-(4-chlorophenyl)thiophene-3-carboxylic acid], for which, in assay [1] (Rattus norvegicus), the half-maximal inhibitory concentration (IC50) (commonly the concentration at which inhibition is half-maximal) is 1.2 µM.

As to `Cc1ccc(-c2csc(NC(=O)c3ccc(Cl)cc3)c2C(=O)O)cc1C` [Compound 38, 2-(4-chlorobenzamido)-4-(3,4-dimethylphenyl)thiophene-3-carboxylic acid], in assay [1] (Rattus norvegicus), the inhibition (as a rule, how much of the control response was suppressed) at 10 µM was below 70% and the half-maximal inhibitory concentration (IC50) came out at 3.8 µM. Turning to `O=C(Nc1scc(-c2ccc(Cl)cc2)c1C(=O)O)c1ccc(Cl)cc1` [Compound 33, 2-(4-chlorobenzamido)-4-(4-chlorophenyl)thiophene-3-carboxylic acid], the IC50 in assay [1] (Rattus norvegicus) was 1 µM. With `O=C(Nc1scc(-c2ccc(Cl)c(Cl)c2)c1C(=O)O)c1ccc(Cl)cc1` [Compound 37, 2-(4-chlorobenzamido)-4-(3,4-dichlorophenyl)thiophene-3-carboxylic acid], in assay [1] (Rattus norvegicus), the inhibition at 10 µM is below 70% and the half-maximal inhibitory concentration (IC50) was determined as 3 µM. For `Cc1ccc(-c2csc(NC(=O)c3ccc(Cl)cc3)c2C(=O)O)cc1` [Compound 34, 2-(4-chlorobenzamido)-4-(4-methylphenyl)thiophene-3-carboxylic acid], the IC50 in assay [1] (Rattus norvegicus) came out at 1 µM. `O=C(Nc1scc(-c2ccc(Cl)cc2)c1C(=O)O)c1cc2ccccc2s1` [Compound 43, 2-(benzothien-2-ylamido)-4-(4-chlorophenyl)thiophene-3-carboxylic acid]: in assay [1], the % Inhibition (usually the share of the control response that was lost under treatment) at 10 μM is above 70% and the half-maximal inhibitory concentration (IC50) was 1 µM. `O=C(Nc1scc(-c2cccc(Cl)c2)c1C(=O)O)c1cc2ccccc2s1` [Compound 46, 2-(benzothien-2-ylamido)-4-(3-chlorophenyl)thiophene-3-carboxylic acid]: in assay [1], the “% Inhibition at 10 μM” value is listed as above 70% and the half-maximal inhibitory concentration (IC50) came out at 10.7 µM. Turning to `O=C(Nc1scc(-c2ccc(Br)cc2)c1C(=O)O)c1ccc(Br)cc1` [Compound 18, 2-(4-bromobenzamido)-4-(4-bromophenyl)thiophene-3-carboxylic acid], in assay [1] (Rattus norvegicus), the inhibition at 10 µM is above 70% and the IC50 was 1.3 µM. Consider `O=C(Nc1scc(-c2ccc(Cl)cc2)c1C(=O)O)c1cccc(F)c1` [Compound 25, 2-(3-fluorobenzamido)-4-(4-chlorophenyl)thiophene-3-carboxylic acid], for which, in assay [1] (Rattus norvegicus), the IC50 turned out to be 1.3 µM.

Turning to `O=C(Nc1scc(-c2ccc(Cl)cc2Cl)c1C(=O)O)c1cc2ccccc2s1` [Compound 45, 2-(benzothien-2-ylamido)-4-(2,4-dichlorophenyl)thiophene-3-carboxylic acid], in assay [1], the “% Inhibition at 10 μM” value was above 70% and the IC50 was 2.4 µM. Turning to `O=C(Nc1scc(-c2ccc(Cl)cc2)c1C(=O)O)c1ccc(Br)cc1` [Compound 17, 2-(4-bromobenzamido)-4-(4-chlorophenyl)thiophene-3-carboxylic acid], in assay [1] (Rattus norvegicus), the inhibition at 10 µM was above 70% and the IC50 is 1 µM.

Consider `Cc1ccc(-c2csc(NC(=O)c3cccc(C)c3)c2C(=O)O)cc1` [Compound 51, 2-(3-methylbenzamido)-4-(4-methylphenyl)thiophene-3-carboxylic acid], for which the half-inhibitory concentration (IC50) in assay [1] (Rattus norvegicus) amounted to 3 µM. For the compound `O=C(Nc1scc(-c2ccc(Cl)cc2Cl)c1C(=O)O)c1ccc(Cl)cc1` [Compound 35, 2-(4-chlorobenzamido)-4-(2,4-dichlorophenyl)thiophene-3-carboxylic acid], in assay [1] (Rattus norvegicus), the inhibition at 10 µM was above 70% and the concentration for half-maximal inhibition (IC50) was found to be 1.6 µM. As to `Cc1ccc(-c2csc(NC(=O)c3cc4ccccc4s3)c2C(=O)O)cc1` [Compound 44, 2-(benzothien-2-ylamido)-4-(4-methylphenyl)thiophene-3-carboxylic acid], in assay [1], the “% Inhibition at 10 μM” value is reported as below 70% and the IC50 stood at 1.3 µM. As for `O=C(Nc1scc(-c2ccc(Br)cc2)c1C(=O)O)c1ccc(Cl)cc1` [Compound 12, 2-(4-chlorobenzamido)-4-(4-bromophenyl)thiophene-3-carboxylic acid], in assay [1] (Rattus norvegicus), the half-inhibitory concentration (IC50) was determined as 1.2 µM. On to `Cc1cccc(C(=O)Nc2scc(-c3ccc(Br)cc3)c2C(=O)O)c1` [Compound 15, 2-(3-methylbenzamido)-4-(4-bromophenyl)thiophene-3-carboxylic acid], for which the IC50 in assay [1] (Rattus norvegicus) amounted to 2.6 µM. Turning to `O=C(Nc1scc(-c2ccc(Br)cc2)c1C(=O)O)c1cc2ccccc2s1` [Compound 14, 2-(benzothien-2-ylamido)-4-(4-bromophenyl)thiophene-3-carboxylic acid], in assay [1], the “% Inhibition at 10 μM” value is on record as above 70% and the IC50 was found to be 2.4 µM. Consider `O=C(Nc1scc(-c2cc(Cl)cc(Cl)c2)c1C(=O)O)c1ccc(Br)cc1` [Compound 19, 2-(4-bromobenzamido)-4-(3,5-dichlorophenyl)thiophene-3-carboxylic acid], for which, in assay [1] (Rattus norvegicus), the inhibition at 10 µM was above 70% and the IC50 stood at 1.6 µM.

Turning to `O=C(Nc1scc(-c2ccc(C(F)(F)F)cc2)c1C(=O)O)c1ccc(F)cc1` [Compound 4, 2-(4-fluorobenzamido)-4-(4-trifluoromethylphenyl)thiophene-3-carboxylic acid], in assay [1] (Rattus norvegicus), the inhibition at 10 µM is above 70%.

Turning to `O=C(Nc1scc(-c2cccc(Cl)c2)c1C(=O)O)c1ccc(Br)cc1` [Compound 20, 2-(4-bromobenzamido)-4-(3-chlorophenyl)thiophene-3-carboxylic acid], in assay [1] (Rattus norvegicus), the inhibition at 10 µM is below 70% and the half-maximal inhibitory concentration (IC50) stood at 4 µM. Consider `O=C(Nc1scc(-c2ccc(Cl)cc2)c1C(=O)O)c1ccc(F)cc1` [Compound 2, 2-(4-fluorobenzamido)-4-(4-chlorophenyl)thiophene-3-carboxylic acid], for which, at hOrail/hSTIM1 [2], the “effect on Monster ICRAC” value is “inhibit”. Moreover, in assay [1] (Rattus norvegicus), the IC50 was determined as 2.3 µM. In addition, the “effect on recombinant hOrail/hSTIM1-dependent Ca2+ entry” value on hOrail/hSTIM1 [3] is “inhibition”. Consider `NCCOB(c1ccccc1)c1ccccc1` [Compound 2-APB, 2-aminoethoxydiphenyl borate], for which the IC50 in the assay on HEK-Zeo control cells amounted to 11800 nM; with HEK[STIM1] cells (HEK[STIM1] cells, entry induced by pretreatment in Ca2+-free buffer, read-out: IC50 for inhibition of Ca2+ entry in the absence of Tg-dependent store depletion), 10800 nM; in the assay with HEK[STIM1] cells (thapsigargin-mediated store depletion, readdition of external calcium, read-out: IC50 for inhibition of calcium entry, HEK[STIM1] cells), 10500 nM. Moreover, the “effect on STIM1-dependent Ca2+ entry” value in the assay on HEK[STIM1] cells (HEK293 overexpressing STIM1, no Tg store depletion, FIG. 13) is “biphasic effect; also recorded: both enhances (at low concentrations) and inhibits (at high concentrations)”.

`O=C(Nc1scc(-c2ccc(F)cc2)c1C(=O)O)c1ccc(Cl)cc1` [Compound 36, 2-(4-chlorobenzamido)-4-(4-fluorophenyl)thiophene-3-carboxylic acid]: the half-inhibitory concentration (IC50) in assay [1] (Rattus norvegicus) stood at 2.4 µM. In the case of `O=C(Nc1scc(-c2ccc(Cl)c(Cl)c2)c1C(=O)O)c1ccc(F)cc1` [Compound 3, 2-(4-fluorobenzamido)-4-(3,4-dichlorophenyl)thiophene-3-carboxylic acid], in assay [1] (Rattus norvegicus), the inhibition at 10 µM was above 70% and the concentration for half-maximal inhibition (IC50) is 3.3 µM. As to `Cc1ccc(-c2csc(NC(=O)c3ccc(Br)cc3)c2C(=O)O)cc1` [Compound 16, 2-(4-bromobenzamido)-4-(4-methylphenyl)thiophene-3-carboxylic acid], the IC50 in assay [1] (Rattus norvegicus) was determined as 0.6 µM.

Take `O=C(Nc1scc(-c2ccc(Cl)cc2Cl)c1C(=O)O)c1cccc(F)c1` [Compound 26, 2-(3-fluorobenzamido)-4-(2,4-dichlorophenyl)thiophene-3-carboxylic acid]: in assay [1] (Rattus norvegicus), the inhibition at 10 µM was above 70% and the IC50 came out at 2.1 µM.

With `O=C(Nc1scc(-c2ccc(Br)cc2)c1C(=O)O)c1cccc(F)c1` [Compound 11, 2-(3-fluorobenzamido)-4-(4-bromophenyl)thiophene-3-carboxylic acid], the IC50 in assay [1] (Rattus norvegicus) came to 0.8 µM.

Regarding `Cc1ccc(-c2csc(NC(=O)c3ccc(Br)cc3)c2C(=O)O)cc1C` [Compound 21, 2-(4-bromobenzamido)-4-(3,4-dimethylphenyl)thiophene-3-carboxylic acid], in assay [1] (Rattus norvegicus), the inhibition at 10 µM was above 70% and the IC50 is 4.6 µM.
